From ChEMBL document CHEMBL1201862, “PubChem BioAssay data set” (2004)
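These data come from cells grown in 96-well plates and exposed to compound for 48 hours at five concentrations. At the GI50, growth is halved.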 The source made the active and inactive calls. No stated cut-off is given here; in the data, active = GI50 up to about 1.1 µM and inactive = higher.

Key:
Assay in all cases: growth of human tumour cells (NCI), 48 h
786-0 = test system: 786-0
A498 = test system: A498
A549 = test system: A549
ACHN = test system: ACHN
BT-549 = test system: BT-549
CAKI-1 = test system: CAKI-1
CCRF-CEM = test system: CCRF-CEM
COLO 205 = test system: COLO 205
DU-145 = test system: DU-145
EKVX = test system: EKVX
HCC 2998 = test system: HCC 2998
HCT-116 = test system: HCT-116
HCT-15 = test system: HCT-15
HL-60 = test system: HL-60
HOP-62 = test system: HOP-62
HOP-92 = test system: HOP-92
HT-29 = test system: HT-29
Hs-578T = test system: Hs-578T
IGROV-1 = test system: IGROV-1
K562 = test system: K562
KM12 = test system: KM12
LOX IMVI = test system: LOX IMVI
M14 = test system: M14
MCF7 = test system: MCF7
MDA-MB-231 = test system: MDA-MB-231
MDA-MB-435 = test system: MDA-MB-435
MDA-N = test system: MDA-N
MOLT-4 = test system: MOLT-4
Malme-3M = test system: Malme-3M
NCI-H23 = test system: NCI-H23
NCI-H460 = test system: NCI-H460
NCI-H522 = test system: NCI-H522
NCI/ADR-RES = test system: NCI/ADR-RES
OVCAR-3 = test system: OVCAR-3
OVCAR-4 = test system: OVCAR-4
OVCAR-5 = test system: OVCAR-5
OVCAR-8 = test system: OVCAR-8
PC-3 = test system: PC-3
RPMI-8226 = test system: RPMI-8226
RXF 393 = test system: RXF 393
SF-268 = test system: SF-268
SF-295 = test system: SF-295
SF-539 = test system: SF-539
SK-MEL-28 = test system: SK-MEL-28
SK-MEL-5 = test system: SK-MEL-5
SK-OV-3 = test system: SK-OV-3
SN12C = test system: SN12C
SNB-19 = test system: SNB-19
SNB-75 = test system: SNB-75
SR = test system: SR
SW-620 = test system: SW-620
T47D = test system: T47D
TK-10 = test system: TK-10
U-251 = test system: U-251
UACC-257 = test system: UACC-257
UO-31 = test system: UO-31
NCI-H226 = test system: NCI-H226
SK-MEL-2 = test system: SK-MEL-2
UACC-62 = test system: UACC-62

SMILES: C/C1=C/C(C)CC(C)OC(=O)C(C)NC(=O)C(Cc2ccc(O)c(I)c2)N(C)C(=O)CNC(=O)C(C)C1 (stereo not drawn)
- GI50 (786-0): < 0.01 µM (active)
- GI50 (A498): < 0.01 µM (active)
- GI50 (A549): < 0.01 µM (active)
- GI50 (ACHN): < 0.01 µM (active)
- GI50 (BT-549): < 0.01 µM (active)
- GI50 (CAKI-1): < 0.01 µM (active)
- GI50 (CCRF-CEM): < 0.01 µM (active)
- GI50 (COLO 205): < 0.01 µM (active)
- GI50 (DU-145): 0.0643 µM (active)
- GI50 (EKVX): 0.0443 µM (active)
- GI50 (HCC 2998): < 0.01 µM (active)
- GI50 (HCT-116): < 0.01 µM (active)
- GI50 (HCT-15): < 0.0121 µM
- GI50 (HL-60): < 0.01 µM (active)
- GI50 (HOP-62): < 0.01 µM (active)
- GI50 (HOP-92): < 0.0112 µM (active)
- GI50 (HT-29): < 0.01 µM (active)
- GI50 (Hs-578T): < 0.0109 µM (active)
- GI50 (IGROV-1): < 0.01 µM (active)
- GI50 (K562): < 0.01 µM (active)
- GI50 (KM12): < 0.01 µM (active)
- GI50 (LOX IMVI): < 0.01 µM (active)
- GI50 (M14): 0.0102 µM (active)
- GI50 (MCF7): 0.125 µM (active)
- GI50 (MDA-MB-231): < 0.01 µM (active)
- GI50 (MDA-MB-435): < 0.01 µM (active)
- GI50 (MDA-N): < 0.01 µM (active)
- GI50 (MOLT-4): < 0.0178 µM (active)
- GI50 (Malme-3M): 0.0272 µM (active)
- GI50 (NCI-H23): 0.409 µM (active)
- GI50 (NCI-H460): < 0.01 µM (active)
- GI50 (NCI-H522): < 0.01 µM (active)
- GI50 (NCI/ADR-RES): 0.0313 µM (active)
- GI50 (OVCAR-3): < 0.01 µM (active)
- GI50 (OVCAR-4): < 0.01 µM (active)
- GI50 (OVCAR-5): 8.81 µM (inactive)
- GI50 (OVCAR-8): 0.0306 µM (active)
- GI50 (PC-3): < 0.01 µM (active)
- GI50 (RPMI-8226): < 0.01 µM (active)
- GI50 (RXF 393): < 0.01 µM (active)
- GI50 (SF-268): < 0.0186 µM (active)
- GI50 (SF-295): 0.0101 µM (active)
- GI50 (SF-539): < 0.01 µM (active)
- GI50 (SK-MEL-28): 0.105 µM (active)
- GI50 (SK-MEL-5): < 0.01 µM (active)
- GI50 (SK-OV-3): < 0.01 µM (active)
- GI50 (SN12C): 0.0342 µM (active)
- GI50 (SNB-19): 2.42 µM (inactive)
- GI50 (SNB-75): < 0.01 µM (active)
- GI50 (SR): < 0.01 µM (active)
- GI50 (SW-620): < 0.01 µM (active)
- GI50 (T47D): 0.229 µM (active)
- GI50 (TK-10): < 0.01 µM (active)
- GI50 (U-251): < 0.01 µM (active)
- GI50 (UACC-257): < 0.01 µM (active)
- GI50 (UO-31): < 0.0109 µM (active)

SMILES: CN(CCN)[C@H](CSSC[C@@H](c1ccccc1O)N(C)CCN)c1ccccc1O
- GI50 (786-0): 7.57 µM (inactive)
- GI50 (A498): 20.2 µM (inactive)
- GI50 (A549): 7.24 µM (inactive)
- GI50 (ACHN): 10.1 µM (inactive)
- GI50 (BT-549): 9.95 µM (inactive)
- GI50 (CAKI-1): 13 µM (inactive)
- GI50 (CCRF-CEM): 1.44 µM (inactive)
- GI50 (COLO 205): 24.8 µM (inactive)
- GI50 (DU-145): 14.8 µM (inactive)
- GI50 (EKVX): 11.5 µM (inactive)
- GI50 (HCC 2998): 12 µM (inactive)
- GI50 (HCT-116): 4.12 µM (inactive)
- GI50 (HCT-15): 5.33 µM
- GI50 (HOP-62): 12.1 µM (inactive)
- GI50 (HOP-92): 17.7 µM (inactive)
- GI50 (HT-29): 9.55 µM (inactive)
- GI50 (Hs-578T): 20.4 µM (inactive)
- GI50 (K562): 7.18 µM (inactive)
- GI50 (KM12): 11.1 µM (inactive)
- GI50 (LOX IMVI): 4.27 µM (inactive)
- GI50 (M14): 13.5 µM (inactive)
- GI50 (MCF7): 14.9 µM (inactive)
- GI50 (MDA-MB-231): 8.81 µM (inactive)
- GI50 (MDA-MB-435): 18 µM (inactive)
- GI50 (MDA-N): 11.9 µM (inactive)
- GI50 (MOLT-4): 4.73 µM (inactive)
- GI50 (Malme-3M): 16.3 µM (inactive)
- GI50 (NCI-H226): 11.7 µM (inactive)
- GI50 (NCI-H23): 13.8 µM (inactive)
- GI50 (NCI-H460): 4.98 µM (inactive)
- GI50 (NCI-H522): 16.5 µM (inactive)
- GI50 (NCI/ADR-RES): 6.1 µM (inactive)
- GI50 (OVCAR-3): 8.38 µM (inactive)
- GI50 (OVCAR-4): 14.1 µM (inactive)
- GI50 (OVCAR-5): 13.9 µM (inactive)
- GI50 (OVCAR-8): 9.04 µM (inactive)
- GI50 (PC-3): 11.7 µM (inactive)
- GI50 (RPMI-8226): 12.9 µM (inactive)
- GI50 (RXF 393): 18.9 µM (inactive)
- GI50 (SF-268): 12.4 µM (inactive)
- GI50 (SF-295): 6.85 µM (inactive)
- GI50 (SF-539): 15.1 µM (inactive)
- GI50 (SK-MEL-28): 14.3 µM (inactive)
- GI50 (SK-MEL-2): 14.6 µM (inactive)
- GI50 (SK-MEL-5): 12 µM (inactive)
- GI50 (SK-OV-3): 11.7 µM (inactive)
- GI50 (SN12C): 9.48 µM (inactive)
- GI50 (SNB-19): 12.1 µM (inactive)
- GI50 (SNB-75): 14.7 µM (inactive)
- GI50 (SR): 2.87 µM (inactive)
- GI50 (SW-620): 15.7 µM (inactive)
- GI50 (T47D): 26.1 µM (inactive)
- GI50 (TK-10): 13.9 µM (inactive)
- GI50 (U-251): 15.9 µM (inactive)
- GI50 (UACC-257): 14.9 µM (inactive)
- GI50 (UACC-62): 10 µM (inactive)
- GI50 (UO-31): 10.1 µM (inactive)
